Data on one compound can be found in patent US9650616B2, “Methods for increasing grain yield” (University of Florida Research Foundation, Inc., priority 2014, dated 2017).

This assay has as its target T1, maize endosperm AGPase, large subunit variant RGR (Q96R, D161G, A443R; numbering of SEQ ID NO: 20) (Zea mays, UniProt P55241+Q84PF5, A443R/D161G/Q96R).
T1 sequence (P55241 46-516 A443R/D161G/Q96R): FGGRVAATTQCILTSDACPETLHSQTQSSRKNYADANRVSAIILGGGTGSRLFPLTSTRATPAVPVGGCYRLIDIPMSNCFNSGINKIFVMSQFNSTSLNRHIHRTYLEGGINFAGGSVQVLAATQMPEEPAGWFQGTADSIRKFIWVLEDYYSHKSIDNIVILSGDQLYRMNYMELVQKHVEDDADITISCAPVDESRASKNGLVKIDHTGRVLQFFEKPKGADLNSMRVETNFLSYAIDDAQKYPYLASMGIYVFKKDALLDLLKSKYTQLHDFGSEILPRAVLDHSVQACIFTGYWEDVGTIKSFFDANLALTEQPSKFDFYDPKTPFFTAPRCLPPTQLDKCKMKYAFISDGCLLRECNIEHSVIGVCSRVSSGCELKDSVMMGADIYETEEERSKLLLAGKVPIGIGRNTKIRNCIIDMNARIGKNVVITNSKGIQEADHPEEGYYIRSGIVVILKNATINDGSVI
T1 sequence (Q84PF5 1-474): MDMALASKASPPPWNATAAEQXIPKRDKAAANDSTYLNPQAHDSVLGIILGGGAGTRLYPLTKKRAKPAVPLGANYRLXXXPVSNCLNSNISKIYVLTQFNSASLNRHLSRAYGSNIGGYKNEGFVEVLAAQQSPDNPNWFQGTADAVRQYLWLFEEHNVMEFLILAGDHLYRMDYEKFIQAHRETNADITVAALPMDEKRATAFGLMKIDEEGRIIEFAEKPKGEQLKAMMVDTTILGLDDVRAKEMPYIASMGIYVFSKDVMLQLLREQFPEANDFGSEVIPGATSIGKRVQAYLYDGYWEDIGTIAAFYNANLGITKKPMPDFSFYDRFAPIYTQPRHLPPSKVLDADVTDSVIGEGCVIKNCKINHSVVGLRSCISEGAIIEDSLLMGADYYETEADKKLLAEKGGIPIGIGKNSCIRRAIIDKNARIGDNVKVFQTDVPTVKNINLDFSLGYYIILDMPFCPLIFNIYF
As to the kind of experiment: Apparent kinetic constants with 3-PGA, 37° C., RGR. In kind it is biochemical. Conditions: read-out: ATP Km. The text has this: The small and large subunit plasmids of maize endosperm AGPase (pMONcBt2 and pMONcSh2, respectively) (Giroux et al., 1996) were expressed in E. coli AC70R1-504 cells (Iglesias et al., 1993) as previously described (Boehlein et al., 2008).
An endpoint assay was used to determine the rate of the AGPase reaction by coupling the formation of PPi to a decrease in NADH concentration (Boehlein et al., 2008). […] The Michaelis constants (Km) were obtained by varying one substrate in the presence of saturating concentrations of the second substrate. The activation constants were obtained by varying the activator at fixed levels of both substrates. All reactions were performed at 37° C. and mixes were prewarmed before starting the reaction with enzyme. […] The absorbance at 340 nm was monitored after 30 min and the amount of PPi produced was determined from a standard curve using PPi in complete reaction mixtures lacking AGPase. Blank samples contained complete reaction mixtures without enzyme and the change in absorbance between the blank and the reaction was used to calculate the amount of PPi produced. […]
The apparent Michaelis constant and maximum velocity of each reaction was calculated from a V vs. S plots using nonlinear regression analysis and the following equation, v=VmaxS/(Km+S), where v is the measured velocity, Vmax is the maximum velocity, S is the substrate concentration. […]

What is called Km is the concentration of substrate that gives half-maximal velocity.

Take `Nc1ncnc2c1ncn2[C@@H]1O[C@H](COP(=O)(O)OP(=O)(O)OP(=O)(O)O)[C@@H](O)[C@H]1O` [ATP]: the Km came out at 62 µM.
